The text below walks through data of patent US12084411B2, “Hinokitiol analogues, methods of preparing and pharmaceutical compositions thereof” (The Board of Trustees of the University of Illinois, priority 2018, dated 2024).

The structures appear in SMILES notation.

For data set [1], the system named is DMT1-deficient Belgrade (b/b) rats. The data set can be described thus: 59Fe gut absorption in Belgrade rats. The format is in vivo. The following applies: 1.5 mg/kg, oral gavage. Here is the method:
^59Fe gastrointestinal absorption of iron in 3-5-month-old b/b rats was characterized similar to the procedure described above in the presence of either 6 mM hinokitiol or 6 mM C2deOHino. To compare with the rate of normal iron uptake, age-matched sibling control (+/+ or +/b) Belgrade rats were tested by the same procedure except that ^59Fe was administered without small molecule. Blood (50 μL) was taken from the tail vein at 15, 30, 60, 120, 180, 240, and 360 minutes post administration. Radioactivity was quantified by gamma counting and calculated as the percentage of gavaged dose (±SEM). Animals were humanely euthanized at 6 hours.

In data set [2] the test system is Alas2-deficient sauternes zebrafish. The data set can be described thus: Hemoglobinization in Alas2-deficient sauternes zebrafish. In kind it is in vivo, Danio rerio. To be noted: heterozygous cross of +/sau fish, 1 μM, 48 hours. Here is the method: (§1) Either mutant or morphant embryos were allowed to develop to >24 hours post fertilization (hpf), then dechorionated with pronase as previously described (81). The dechorionated embryos or morphants were then incubated in the presence of 1 μM hinokitiol (or vehicle) and 10 μM iron (III) citrate for an additional forty-eight hours. Vehicle treated embryos were exposed to […]. C2deOHino (1 μM) with iron (III) citrate (10 μM) was used as a negative control. Control and either mutant or morphant embryos at ˜72 hpf were either (a) directly stained by o-dianisidine (79) or (b) mechanically homogenized as previously described for flow cytometry (75, 78).

For data set [3], the system named is Mfrn1-deficient MEL cells. The data set can be described thus: Hemoglobinization of Mfrn1-deficient MEL cells. The format is cell-based, mouse. To be noted: 1 μM. The method, then:
Differentiation of MEL Cells with DMSO (FIG. 3D) To perform differentiation experiments with MEL cells (39), the indicated MEL cells were diluted to 1×10^5 cells/mL in MEL Complete media containing 10 μM iron (III) citrate and 2% DMSO in the absence or presence of 1 μM hinokitiol or C2deOHino (added from 1000X stock in DMSO) in 12-well plates. Cells were then incubated at 37° C. for 72 hours unless otherwise noted.
Hemoglobinized MEL cells were quantified three days after DMSO induction through o-dianisidine staining similar to previously reported (74). Cells were centrifuged three days after induction and rinsed with PBS. […] The number of stained cells were then quantified via ImageJ analysis and compared to the number of total cells in each image. […]
MEL cells were induced for differentiation as described above and incubated at 37° C. for 70 hours before addition of a saturated iron-transferrin (^55Fe2Tf) solution (40 nM final concentration from a 10 μM ^55Fe2Tf stock). […] After completion, the cells were counted with a hemocytometer, the media was removed after centrifugation, the cells were rinsed with PBS (×3), and the cell suspension was diluted in scintillation cocktail and radioactivity was determined. […] After completion, the cells were counted with a hemocytometer, the media was removed after centrifugation, and the cells were rinsed with PBS (×3). […]

Data set [4] deals with DMT1-deficient zebrafish. To be noted: two days; for hemoglobinization (GFP-positive erythroids): 1 μM in water from 24 hpf; for number of fish with high hemoglobin levels (o-dianisidine): heterozygous cross of +/cdy fish. The method, then: The morpholinos (MOs) were purchased from GeneTools, LLC (Philomath, OR). The sequences of the MO used were as follows: dmt1 MO: 5′-[…]-3′; mfrnl MO: 5′-[…]-3′. Zebrafish embryos at the 1-cell stage were injected with MOs as previously described (72, 78). o-dianisidine staining for hemoglobinized cells in embryos was as previously described (79). Quantification by flow cytometry using fluorescently labeled erythrocytes from the transgenic Tg(globinLCR:eGFP) line (50) was performed as previously described (72, 75). Semi-quantitative RT-PCR of dmt1 mRNA in morphants was performed using custom designed probes as previously described (80). The sequences of the dmt1 primers are as follows: 5′-[…]-3′ (Fwd); 5′-[…]-3′ (Rev). The sequences of the control actb primers were as follows: 5′-[…]-3′ (Fwd); 5′-[…]-3′ (Rev).
as §1

Data set [5] has as its system Caco-2. Nature of the data set: WST-8 toxicity in Caco-2 cells. On the technique in general: Tetrazolium dyes change colour on reduction, which living cells bring about.
Description: Determination of small molecule-mediated toxicity in Caco-2, MEL, and/or J774 cells was performed according to manufacturer instructions using a WST-8 kit (Cayman Chemical 10010199) similar to previously reported (76) using a 1000× stock of the indicated small molecule in DMSO to give the indicated final concentration.
Data set [6] can be described thus: Exchangeability of ferric iron bound to hinokitiol. In kind it is physicochemical. The method, then:
The reversible exchange of ferric iron bound to hinokitiol was determined similar to previously described (69). […] The solution was equilibrated for 1 hour at 37° C., and then an equal amount of ^55FeCl3 (100 nM) was added. The solution was incubated at 37° C., and at the indicated time points an aliquot was taken and added to water. The iron-hinokitiol complex was immediately separated from unbound iron through extraction with ethyl acetate and the radioactive counts were determined by scintillation counting.

Data set [7] relates to FPN1-deficient Caco-2 monolayers. The data set can be described thus: 55Fe uptake and transport in FPN1-deficient Caco-2 monolayers. The format is cell-based, Human. The following applies: 1 μM. The method, then:
To knockdown FPN1 levels in wild type Caco-2 cells, the differentiated epithelial monolayers were incubated with 150 μM quercetin (Sigma 337951) for 18 hours in Caco-2 Complete media containing G418 similar to previously described (40). To knockdown FPN1 levels in shControl and shDMT1 Caco-2 monolayers, incubation was performed as above except with 250 μM quercetin. After completion of the incubation, the apical and basolateral fluid was aspirated and rinsed with PBS before ^55Fe transport and uptake were determined as described above.
(In general: Caco-2 monolayers are a common model of the intestinal barrier.)

Setting [8] is: DMT1-deficient morphant zebrafish.

For the molecule `CC(C)c1cccc(=O)cc1` [C2deOHino, C2-deoxy hinokitiol], the “reduction in 59Fe absorption relative to sibling controls (+/+ or +/b)” value in data set [1] is given as 2 fold. The hemoglobinization result is on record as “do not promote hemoglobinization” in data set [2] and “no effect” in data set [3]. Further, the “hemoglobinization (GFP-positive erythroids)” value in data set [4] (setting [8]) is recorded as “no effect”. In addition, the “number of fish with high hemoglobin levels (o-dianisidine)” value in data set [4] is “no effect”. Further, in data set [5] (read-out: Toxicity (EC90), Wild Type Caco-2, WST-8 assay after ≥24 hours of incubation), the 90% effect concentration (EC90) is over 100 µM.

Turning to `CC(C)c1cccc(=O)c(O)c1` [hinokitiol], the “time to equilibrium between 55Fe- and 56Fe-hinokitiol complex” value in data set [6] (10 mM Mes/Tris, pH 7.0) was “within one hour”. The “exchange of bound 56Fe with 55Fe in solution” value in data set [6] (within 10 minutes, pH 7.0, 37° C.) was over 20%. For the same molecule, the iron uptake result in data set [7] was “without affecting iron uptake”. Moreover, the “monolayer integrity (TEER)” value in data set [7] was “nor disrupting monolayer integrity”. In addition, in data set [7], the transepithelial iron transport result was “restored transepithelial iron transport”. Moreover, in data set [1] (after one hour), the gut iron absorption result was “increased ^55Fe absorption back to control levels”. The hemoglobinization result was “did not rescue” in data set [2], “do not promote hemoglobinization” in data set [2] (listed as Hinokitiol) and “restored hemoglobinization” in data set [3]. In data set [4] (setting [8]), the “hemoglobinization (GFP-positive erythroids)” value is given as “promoted hemoglobinization”. In addition, the observable toxicity result in data set [4] (DMT1-deficient morphant zebrafish, 1 μM) is reported as “without observable toxicity”; in data set [5] (Caco-2 monolayers, hinokitiol 500 nM), “no observable toxicity”. For the same molecule, in data set [4], the “number of fish with high hemoglobin levels (o-dianisidine)” value is “increased the number of fish exhibiting high hemoglobin levels”.

By EC90 is commonly meant the concentration needed for an effect of 90%.
